Legend:
Settings in all cases: incubation time: 72 h
[1] = system: BT-474; test: normalised response (% of control), CellTox Green; higher = less cell death (100 = DMSO, 0 = benzethonium chloride kill control)
In short: (§1)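 Breast cancer cell lines in 20 µl suspension were added to 384-well plates containing compound at 5 concentrations, spaced in 10-fold steps across a 10,000-fold range chosen for each compound, and incubated for 72 h. CellTox Green fluorescence was read at 485/520 nm, followed by CellTiter-Glo luminescence after 10 min at room temperature. Signals on each plate were normalised so that 0.1 % DMSO equals 100 and a positive kill control equals 0. Every value in the table is the normalised signal at one concentration of the series.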

[2] = system: BT-549; test: as above
In short: as §1

[3] = system: CAL-120; test: as above
In short: as §1

[4] = system: CAL-51; test: as above
In short: as §1

[5] = system: CAL-85-1; test: as above
In short: as §1

[6] = system: DU-4475; test: as above
In short: as §1

[7] = system: HCC1143; test: as above
In short: as §1

[8] = system: HCC1599; test: as above
In short: as §1

[9] = system: HCC1937; test: as above
In short: as §1

[10] = system: MCF-10A; test: as above
In short: as §1

[11] = system: MDA-MB-231; test: as above
In short: as §1

[12] = system: MDA-MB-436; test: as above
In short: as §1

[13] = system: MDA-MB-453; test: as above
In short: as §1

[14] = system: MDA-MB-468; test: as above
In short: as §1

[15] = system: MFM-223; test: as above
In short: as §1

[16] = system: BT-474; test: normalised response (% of control), CellTiter-Glo; higher = more viable cells (100 = DMSO, 0 = benzethonium chloride kill control)
Procedure: (§2)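 DSRT, 72 h incubation, CellTox Green / CellTiter-Glo readout. Signal is normalised to DMSO and benzethonium chloride controls. Value is the normalised response at dose 3.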

[17] = system: BT-549; test: as above
Procedure: as §2

[18] = system: CAL-120; test: as above
Procedure: as §2

[19] = system: CAL-148; test: as above
Procedure: as §2

[20] = system: CAL-51; test: as above
Procedure: as §2

[21] = system: CAL-85-1; test: as above
Procedure: as §2

[22] = system: DU-4475; test: as above
Procedure: as §2

[23] = system: HCC1143; test: as above
Procedure: as §2

[24] = system: HCC1599; test: as above
Procedure: as §2

[25] = system: HCC1937; test: as above
Procedure: as §2

[26] = system: HDQ-P1; test: as above
Procedure: as §2

[27] = system: Hs578T; test: as above
Procedure: as §2

[28] = system: MCF-10A; test: as above
Procedure: as §2

[29] = system: MDA-MB-231; test: as above
Procedure: as §2

[30] = system: MDA-MB-436; test: as above
Procedure: as §2

[31] = system: MDA-MB-453; test: as above
Procedure: as §2

[32] = system: MDA-MB-468; test: as above
Procedure: as §2

[33] = system: MFM-223; test: as above
Procedure: as §2

[34] = system: SK-BR-3; test: as above
Procedure: as §2

[35] = system: CAL-148; test: normalised response (% of control), CellTox Green; higher = less cell death (100 = DMSO, 0 = benzethonium chloride kill control)
In short: as §1

[36] = system: HDQ-P1; test: as above
In short: as §1

[37] = system: Hs578T; test: as above
In short: as §1

[38] = system: BT-474; test: normalised response (% of control), CellTiter-Glo; higher = more viable cells (100 = DMSO, 0 = benzethonium chloride kill control); remark: listed apart in the source
Procedure: (§3)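 DSRT, 72 h incubation, CellTox Green / CellTiter-Glo readout. Signal is normalised to DMSO and benzethonium chloride controls. Value is the normalised response at the highest dose.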

[39] = system: BT-549; test: as above; remark: listed apart in the source
Procedure: as §3

[40] = system: CAL-120; test: as above; remark: listed apart in the source
Procedure: as §3

[41] = system: CAL-148; test: as above; remark: listed apart in the source
Procedure: as §3

[42] = system: CAL-51; test: as above; remark: listed apart in the source
Procedure: as §3

[43] = system: CAL-85-1; test: as above; remark: listed apart in the source
Procedure: as §3

[44] = system: DU-4475; test: as above; remark: listed apart in the source
Procedure: as §3

[45] = system: HCC1143; test: as above; remark: listed apart in the source
Procedure: as §3

[46] = system: HCC1599; test: as above; remark: listed apart in the source
Procedure: as §3

[47] = system: HCC1937; test: as above; remark: listed apart in the source
Procedure: as §3

[48] = system: HDQ-P1; test: as above; remark: listed apart in the source
Procedure: as §3

[49] = system: Hs578T; test: as above; remark: listed apart in the source
Procedure: as §3

[50] = system: MCF-10A; test: as above; remark: listed apart in the source
Procedure: as §3

[51] = system: MDA-MB-231; test: as above; remark: listed apart in the source
Procedure: as §3

[52] = system: MDA-MB-436; test: as above; remark: listed apart in the source
Procedure: as §3

[53] = system: MDA-MB-453; test: as above; remark: listed apart in the source
Procedure: as §3

[54] = system: MDA-MB-468; test: as above; remark: listed apart in the source
Procedure: as §3

[55] = system: MFM-223; test: as above; remark: listed apart in the source
Procedure: as §3

[56] = system: SK-BR-3; test: as above; remark: listed apart in the source
Procedure: as §3

SMILES	normalised response [1] [%]	normalised response [2] [%]	normalised response [3] [%]	normalised response [4] [%]	normalised response [5] [%]	normalised response [6] [%]	normalised response [7] [%]	normalised response [8] [%]	normalised response [9] [%]	normalised response [10] [%]	normalised response [11] [%]	normalised response [12] [%]	normalised response [13] [%]	normalised response [14] [%]	normalised response [15] [%]	normalised response [35] [%]	normalised response [36] [%]	normalised response [37] [%]	normalised response [38] [%]	normalised response [39] [%]	further results
O=C1c2c(O)ccc(O)c2C(=O)c2c(NCCNCCO)ccc(NCCNCCO)c21 [Mitoxantrone] (10 nM)	101	94.3	101	104	96.2	99.9	111	96.5	91.8	107	104	93.1	107	129	97.3						normalised response [16]: 96.1%; normalised response [17]: 96.7%; normalised response [18]: 104%; normalised response [19]: 98.6%; normalised response [20]: 93.5%; normalised response [21]: 97.8%; normalised response [22]: 95.8%; normalised response [23]: 104%; normalised response [24]: 97.2%; normalised response [25]: 101%; normalised response [26]: 106%; normalised response [27]: 102%; normalised response [28]: 96.2%; normalised response [29]: 99.8%; normalised response [30]: 92.7%; normalised response [31]: 99.3%; normalised response [32]: 95.6%; normalised response [33]: 94%; normalised response [34]: 89.1%
c1cc(CN2CCCNCCNCCCNCC2)ccc1CN1CCCNCCNCCCNCC1 [Plerixafor] (10000 nM)	99.7	52.3	95.2	85.7	117	92.3	101	98.2	104	94.2	96	95.5	80.5	69.7	96.9	98.5	104	102	90.9	107	normalised response [40]: 108%; normalised response [41]: 91.8%; normalised response [42]: 124%; normalised response [43]: 96%; normalised response [44]: 88.6%; normalised response [45]: 102%; normalised response [46]: 99.8%; normalised response [47]: 97.3%; normalised response [48]: 98.2%; normalised response [49]: 92.3%; normalised response [50]: 82.6%; normalised response [51]: 94.2%; normalised response [52]: 97.9%; normalised response [53]: 78.3%; normalised response [54]: 106%; normalised response [55]: 87.2%; normalised response [56]: 79.1%
Cn1cc(CNCC2CCN(c3ncc(C(=O)NO)cn3)CC2)c2ccccc21 [Quisinostat] (1000 nM)	35.7	64.2	-15.2	-21.8	-55.4	77.2	57.9	71.7	82	56.8	-24.8	91.8	87.9	31.9	66.2	-22.9	52.1	9.9	6.87	10.2	normalised response [40]: 10.8%; normalised response [41]: 0.34%; normalised response [42]: 7.13%; normalised response [43]: 4.67%; normalised response [44]: 15.9%; normalised response [45]: 13.9%; normalised response [46]: 6.82%; normalised response [47]: 22.7%; normalised response [48]: 25.7%; normalised response [49]: 5.64%; normalised response [50]: 10.7%; normalised response [51]: 6.24%; normalised response [52]: 34.8%; normalised response [53]: 2.11%; normalised response [54]: 10.2%; normalised response [55]: 32.8%; normalised response [56]: 0.06%
CC(C)N(CCCNC(=O)Nc1ccc(C(C)(C)C)cc1)C[C@H]1O[C@@H](n2cc(Br)c3c(N)ncnc32)[C@H](O)[C@@H]1O [SGC0946] (100 nM)	98.2	101	95.6	95.6	103	98.8	88.1	96.4		99	73.8	95.2	99.1	108	97.4	100					normalised response [16]: 96%; normalised response [17]: 91.3%; normalised response [18]: 101%; normalised response [19]: 86.6%; normalised response [20]: 91.1%; normalised response [21]: 102%; normalised response [22]: 98%; normalised response [23]: 101%; normalised response [24]: 93.7%; normalised response [25]: 94.4%; normalised response [26]: 93%; normalised response [27]: 88.5%; normalised response [28]: 96%; normalised response [29]: 96%; normalised response [30]: 99.4%; normalised response [31]: 91%; normalised response [32]: 93.8%; normalised response [33]: 95.2%; normalised response [34]: 90%
CC[C@@]1(O)C(=O)OCc2c1cc1n(c2=O)Cc2cc3c(CN(C)C)c(O)ccc3nc2-1 [Topotecan] (10000 nM)	88.4	56.9	49.3	-18.1	42.3	60.8	87.9	71.7	18.6	55.5	46.1	29.1	85.1	29.5	43.5	7.1	69.8	102	47.8	22.1	normalised response [40]: 37%; normalised response [41]: 0.39%; normalised response [42]: 15.2%; normalised response [43]: 21.6%; normalised response [44]: 0.66%; normalised response [45]: 26.9%; normalised response [46]: 9.36%; normalised response [47]: 15.3%; normalised response [48]: 54.5%; normalised response [49]: 55.2%; normalised response [50]: 39%; normalised response [51]: 43.1%; normalised response [52]: 21%; normalised response [53]: 33.2%; normalised response [54]: 4.47%; normalised response [55]: 61.7%; normalised response [56]: 19.6%

Source: the supplement of paper PMC4862054
